# Key:
# Influenza B virus [1] = assay: Antiviral activity against influenza B virus assessed as cell viability by cell based MTS assay; assay type: functional, organism-based
# Influenza A virus [2] = assay: Antiviral activity against influenza A virus H1N1 assessed as inhibition of viral induced cytopathic effect; assay type: functional, organism-based
# Influenza A virus [3] = assay: Antiviral activity against Influenza A virus H3N2 assessed as inhibition of viral induced cytopathic effect; assay type: functional, organism-based
# Influenza B virus [4] = assay: Antiviral activity against influenza B virus assessed as inhibition of viral induced cytopathic effect; assay type: functional, organism-based
# Influenza A virus [5] = assay: Antiviral activity against Influenza A virus H3N2 assessed as cell viability by cell based MTS assay; assay type: functional, organism-based
# Influenza A virus [6] = assay: Antiviral activity against influenza A virus H1N1 assessed as cell viability by cell based MTS assay; assay type: functional, organism-based
# Staphylococcus aureus [7] = assay: Antibacterial activity against methicillin-[…] Staphylococcus aureus ATCC 33591 by broth microdilution method; assay type: functional
# [8] = test system: Staphylococcus epidermidis; assay: Antibacterial activity against Staphylococcus epidermidis by broth microdilution method; assay type: functional
# Bacillus subtilis = assay: Antibacterial activity against Bacillus subtilis ATCC 6633 by broth microdilution method; assay type: functional
# Enterococcus faecalis [9] = assay: Antibacterial activity against vancomycin and teicoplanin-sensitive Enterococcus faecalis ATCC 29212 by broth microdilution method; assay type: functional
# Staphylococcus aureus [10] = assay: Antibacterial activity against methicillin-[…] Staphylococcus aureus ATCC 29213 by broth microdilution method; assay type: functional
# Enterococcus faecalis [11] = assay: Antibacterial activity against vancomycin and teicoplanin-resistant Enterococcus faecalis 15376 expressing VanA gene by broth microdilution method; assay type: functional
# Enterococcus faecalis [12] = assay: Antibacterial activity against vancomycin-resistant and teicoplanin-sensitive Enterococcus faecalis ATCC 5129 expressing VanB gene by broth microdilution method; assay type: functional
# [13] = test system: Staphylococcus epidermidis; assay: Antibacterial activity against biofilm positive Staphylococcus epidermidis ATCC 35984; assay type: functional
Structure (SMILES),EC50 (Influenza B virus [1]),EC50 (Influenza A virus [2]),EC50 (Influenza A virus [3]),EC50 (Influenza B virus [4]),EC50 (Influenza A virus [5]),EC50 (Influenza A virus [6]),MBC (Staphylococcus aureus [7]),MIC (Staphylococcus aureus [7]),MBC [8],MIC [8],MBC (Bacillus subtilis),MIC (Bacillus subtilis),MBC (Enterococcus faecalis [9]),MIC (Enterococcus faecalis [9]),MBC (Staphylococcus aureus [10]),MIC (Staphylococcus aureus [10]),MIC (Enterococcus faecalis [11]),MBC (Enterococcus faecalis [12]),MIC (Enterococcus faecalis [12]),MBC [13],also measured
COC(=O)[C@H]1NC(=O)[C@H]2NC(=O)[C@H](NC(=O)[C@@H]3NC(=O)[C@H]4NC(=O)[C@H](NC(=O)[C@H](N=[N+]=[N-])c5ccc(O)c(c5)Oc5cc4cc(O)c5C)[C@H](O)c4ccc(cc4)Oc4cc3cc(c4O)Oc3ccc(cc3)[C@H]2O)c2ccc(O)c(c2)-c2c(O)cc(O)cc21 [listing 1 of 2 here],> 100 µM,9.5 µM,≥ 20 µM,> 100 µM,≥ 9 µM,,,,,,,,,,,,,,,,
CC(N)C12CC3CC(CC(C3)C1)C2 (stereo not drawn) [RIMANTADINE],> 500 µM,224 µM,4 µM,> 500 µM,5.6 µM,283 µM,,,,,,,,,,,,,,,
Cc1c(O)cc2cc1Oc1cc(ccc1O)[C@@H](N)C(=O)N[C@H]1C(=O)N[C@@H]2C(=O)N[C@H]2C(=O)N[C@H]3C(=O)N[C@H](C(=O)N[C@@H](C(=O)O)c4cc(O)cc(O[C@H]5O[C@H](CO)[C@@H](O)[C@H](O)[C@@H]5O)c4-c4cc3ccc4O)[C@H](O[C@H]3C[C@@H](N)[C@@H](O)[C@H](C)O3)c3ccc(cc3)Oc3cc2cc(c3O[C@H]2O[C@@H](CO[C@H]3O[C@H](C)[C@@H](O)[C@H](O)[C@@H]3O)[C@H](O)[C@@H](O)[C@@H]2O[C@H]2O[C@H](CO)[C@@H](O)[C@H](O)[C@@H]2O[C@H]2O[C@H](CO)[C@@H](O)[C@@H]2O)Oc2ccc(cc2)[C@H]1O [RISTOCETIN],,,,,,,64 µg/mL,16 µg/mL,16 µg/mL,16 µg/mL,4 µg/mL,2 µg/mL,256 µg/mL,4 µg/mL,64 µg/mL,16 µg/mL,128 µg/mL,256 µg/mL,128 µg/mL,64 µg/mL,MBC (Enterococcus faecalis [11]): 256 µg/mL; MIC [13]: 32 µg/mL
NC(=O)c1ncn([C@@H]2O[C@H](CO)[C@@H](O)[C@H]2O)n1 [RIBAVIRIN],4.7 µM,,,4 µM,,11 µM,,,,,,,,,,,,,,,
COC(=O)[C@H]1NC(=O)[C@H]2NC(=O)[C@H](NC(=O)[C@@H]3NC(=O)[C@H]4NC(=O)[C@H](NC(=O)[C@H](N=[N+]=[N-])c5ccc(O)c(c5)Oc5cc4cc(O)c5C)[C@H](O)c4ccc(cc4)Oc4cc3cc(c4O)Oc3ccc(cc3)[C@H]2O)c2ccc(O)c(c2)-c2c(O)cc(O)cc21 [listing 2 of 2 here],,,,,,,2 µg/mL,1 µg/mL,8 µg/mL,4 µg/mL,4 µg/mL,1 µg/mL,16 µg/mL,8 µg/mL,2 µg/mL,2 µg/mL,> 256 µg/mL,128 µg/mL,64 µg/mL,64 µg/mL,MIC [13]: 32 µg/mL
CCOC(=O)C1=C[C@@H](OC(CC)CC)[C@H](NC(C)=O)[C@@H](N)C1 [OSELTAMIVIR],27 µM,12 µM,32 µM,23 µM,38 µM,11 µM,,,,,,,,,,,,,,,
COC(=O)[C@@H]1NC(=O)[C@H]2NC(=O)[C@H](NC(=O)[C@@H]3NC(=O)[C@H]4NC(=O)[C@H](NC(=O)[C@H](n5cc(CO[C@H]6O[C@H](COC(C)=O)[C@@H](OC(C)=O)[C@H](OC(C)=O)[C@H]6NC(C)=O)nn5)c5ccc(O)c(c5)Oc5cc4cc(O)c5C)[C@H](O)c4ccc(cc4)Oc4cc3cc(c4O)Oc3ccc(cc3)[C@H]2O)c2ccc(O)c(c2)-c2c(O)cc(O)cc21,> 100 µM,8 µM,> 100 µM,> 100 µM,> 100 µM,5.8 µM,64 µg/mL,1 µg/mL,4 µg/mL,4 µg/mL,8 µg/mL,2 µg/mL,256 µg/mL,4 µg/mL,256 µg/mL,0.5 µg/mL,2 µg/mL,256 µg/mL,4 µg/mL,8 µg/mL,MBC (Enterococcus faecalis [11]): 256 µg/mL; MIC [13]: 8 µg/mL
COC(=O)[C@@H]1NC(=O)[C@H]2NC(=O)[C@H](NC(=O)[C@@H]3NC(=O)[C@H]4NC(=O)[C@H](NC(=O)[C@H](n5cc(CO[C@@H]6O[C@@H](C)[C@H](OC(C)=O)[C@@H](OC(C)=O)[C@H]6OC(C)=O)nn5)c5ccc(O)c(c5)Oc5cc4cc(O)c5C)[C@H](O)c4ccc(cc4)Oc4cc3cc(c4O)Oc3ccc(cc3)[C@H]2O)c2ccc(O)c(c2)-c2c(O)cc(O)cc21,> 100 µM,> 100 µM,> 100 µM,> 100 µM,> 100 µM,> 100 µM,32 µg/mL,16 µg/mL,8 µg/mL,4 µg/mL,32 µg/mL,32 µg/mL,256 µg/mL,32 µg/mL,32 µg/mL,16 µg/mL,16 µg/mL,256 µg/mL,128 µg/mL,4 µg/mL,MBC (Enterococcus faecalis [11]): 256 µg/mL; MIC [13]: 4 µg/mL
COC(=O)[C@@H]1NC(=O)[C@H]2NC(=O)[C@H](NC(=O)[C@@H]3NC(=O)[C@H]4NC(=O)[C@H](NC(=O)[C@H](n5cc(CO[C@H]6O[C@H](COC(C)=O)[C@@H](O[C@H]7O[C@H](COC(C)=O)[C@@H](OC(C)=O)[C@H](OC(C)=O)[C@H]7OC(C)=O)[C@H](OC(C)=O)[C@H]6OC(C)=O)nn5)c5ccc(O)c(c5)Oc5cc4cc(O)c5C)[C@H](O)c4ccc(cc4)Oc4cc3cc(c4O)Oc3ccc(cc3)[C@H]2O)c2ccc(O)c(c2)-c2c(O)cc(O)cc21,> 100 µM,> 100 µM,> 100 µM,> 100 µM,> 100 µM,> 100 µM,4 µg/mL,1 µg/mL,16 µg/mL,4 µg/mL,8 µg/mL,8 µg/mL,256 µg/mL,4 µg/mL,4 µg/mL,1 µg/mL,2 µg/mL,256 µg/mL,8 µg/mL,8 µg/mL,MBC (Enterococcus faecalis [11]): 256 µg/mL; MIC [13]: 4 µg/mL
NC12CC3CC(CC(C3)C1)C2 [AMANTADINE],> 500 µM,20 µM,7 µM,> 500 µM,9.2 µM,19 µM,,,,,,,,,,,,,,,
COC(=O)[C@H]1NC(=O)[C@H]2NC(=O)[C@H](NC(=O)[C@@H]3NC(=O)[C@H]4NC(=O)[C@H](NC(=O)[C@H](n5cc(CO[C@@H]6O[C@@H](C)[C@H](O)[C@@H](O)[C@H]6O)nn5)c5ccc(O)c(c5)Oc5cc4cc(O)c5C)[C@H](O)c4ccc(cc4)Oc4cc3cc(c4O)Oc3ccc(cc3)[C@H]2O)c2ccc(O)c(c2)-c2c(O)cc(O)cc21,,,,,,,16 µg/mL,8 µg/mL,32 µg/mL,16 µg/mL,16 µg/mL,16 µg/mL,256 µg/mL,32 µg/mL,8 µg/mL,8 µg/mL,16 µg/mL,128 µg/mL,64 µg/mL,16 µg/mL,MBC (Enterococcus faecalis [11]): 256 µg/mL; MIC [13]: 16 µg/mL
COC(=O)[C@@H]1NC(=O)[C@H]2NC(=O)[C@H](NC(=O)[C@@H]3NC(=O)[C@H]4NC(=O)[C@H](NC(=O)[C@H](n5cc(CO[C@H]6O[C@H](COC(C)=O)[C@@H](OC(C)=O)[C@H](OC(C)=O)[C@H]6OC(C)=O)nn5)c5ccc(O)c(c5)Oc5cc4cc(O)c5C)[C@H](O)c4ccc(cc4)Oc4cc3cc(c4O)Oc3ccc(cc3)[C@H]2O)c2ccc(O)c(c2)-c2c(O)cc(O)cc21,> 100 µM,9.5 µM,> 100 µM,> 100 µM,> 100 µM,8.2 µM,8 µg/mL,4 µg/mL,16 µg/mL,16 µg/mL,16 µg/mL,8 µg/mL,256 µg/mL,8 µg/mL,8 µg/mL,4 µg/mL,8 µg/mL,256 µg/mL,16 µg/mL,16 µg/mL,MBC (Enterococcus faecalis [11]): 256 µg/mL; MIC [13]: 8 µg/mL
COC(=O)[C@@H]1NC(=O)[C@H]2NC(=O)[C@H](NC(=O)[C@@H]3NC(=O)[C@H]4NC(=O)[C@H](NC(=O)[C@H](n5cc(CO[C@H]6O[C@H](COC(C)=O)[C@@H](OC(C)=O)[C@H](OC(C)=O)[C@@H]6OC(C)=O)nn5)c5ccc(O)c(c5)Oc5cc4cc(O)c5C)[C@H](O)c4ccc(cc4)Oc4cc3cc(c4O)Oc3ccc(cc3)[C@H]2O)c2ccc(O)c(c2)-c2c(O)cc(O)cc21,> 100 µM,4 µM,> 100 µM,> 100 µM,> 100 µM,5 µM,4 µg/mL,2 µg/mL,4 µg/mL,2 µg/mL,8 µg/mL,4 µg/mL,128 µg/mL,4 µg/mL,4 µg/mL,2 µg/mL,2 µg/mL,256 µg/mL,8 µg/mL,4 µg/mL,MBC (Enterococcus faecalis [11]): 128 µg/mL; MIC [13]: 4 µg/mL

# — ChEMBL document CHEMBL1158551, “Click reaction synthesis of carbohydrate derivatives from ristocetin aglycon with antibacterial and antiviral activity” (Bioorg Med Chem Lett, 2010)
